Laboratory results as given in the NIST ThermoML archive (doi:10.1016/j.jct.2012.11.020).

Assay: xn = mol fraction of the nth substance listed
Details: 100 kPa, Liquid; for electrical conductivity: Alternating current cell with electrodes; for viscosity: Cone and plate viscometry; for mass density: Vibrating tube method

C1CC[NH2+]C1.O=[N+]([O-])[O-] [pyrrolidinium nitrate] + CC1COC(=O)O1
Details | electrical conductivity [S/m] | mass density [kg/m3] | viscosity [mPa·s]
258.15 K, x1 = 0.3 | 0.387 | – | –
260.15 K, x1 = 0.1 | 0.142 | – | –
260.15 K, x1 = 0.22 | 0.315 | – | –
262.15 K, x1 = 0.5 | 0.673 | – | –
263.15 K, x1 = 0.3 | 0.481 | – | –
266.45 K, x1 = 0.22 | 0.376 | – | –
268.15 K, x1 = 0.1 | 0.207 | – | –
268.15 K, x1 = 0.3 | 0.585 | – | –
268.15 K, x1 = 0.5 | 0.91 | – | –
270.15 K, x1 = 0.8 | 0.0803 | – | –
273.15 K, x1 = 0.1 | 0.243 | – | –
273.15 K, x1 = 0.22 | 0.446 | – | –
273.15 K, x1 = 0.3 | 0.694 | – | –
273.15 K, x1 = 0.5 | 1.1 | – | –
273.15 K, x1 = 0.8 | 0.118 | – | –
278.15 K, x1 = 0.1 | 0.281 | – | –
278.15 K, x1 = 0.22 | 0.505 | – | –
278.15 K, x1 = 0.3 | 0.807 | – | –
278.15 K, x1 = 0.5 | 1.19 | – | –
278.15 K, x1 = 0.8 | 0.206 | – | –
283.15 K, x1 = 0.1 | 0.322 | 1221 | 5.97
283.15 K, x1 = 0.22 | 0.562 | 1225.2 | 7.55
283.15 K, x1 = 0.3 | 0.92 | 1227.5 | 9.98
283.15 K, x1 = 0.4 | – | 1229.8 | 14.1
283.15 K, x1 = 0.5 | 1.49 | 1231.5 | 18.85
283.15 K, x1 = 0.62 | – | 1233 | 23.36
283.15 K, x1 = 0.7 | – | 1233.3 | 28.76
283.15 K, x1 = 0.8 | 0.352 | 1234 | 35.56
283.15 K, x1 = 1 | – | 1235 | 58.87
284.15 K, x1 = 1 | 2.93 | – | –
288.15 K, x1 = 0.1 | 0.362 | – | –
288.15 K, x1 = 0.22 | 0.606 | – | –
288.15 K, x1 = 0.3 | 1.04 | – | –
288.15 K, x1 = 0.5 | 1.7 | – | –
288.15 K, x1 = 0.8 | 0.644 | – | –
293.15 K, x1 = 0.1 | 0.405 | 1211 | 4.71
293.15 K, x1 = 0.22 | 0.702 | 1215.8 | 5.73
293.15 K, x1 = 0.3 | 1.17 | 1218.5 | 7.37
293.15 K, x1 = 0.4 | – | 1221.2 | 10.17
293.15 K, x1 = 0.5 | 1.91 | 1223.1 | 13.06
293.15 K, x1 = 0.62 | – | 1225 | 17.16
293.15 K, x1 = 0.7 | – | 1225.6 | 20.39
293.15 K, x1 = 0.8 | 1.44 | 1226.5 | 24.65
293.15 K, x1 = 1 | 3.71 | 1228 | 40.29
298.15 K, x1 = 0.1 | 0.449 | – | –
298.15 K, x1 = 0.22 | 0.745 | – | –
298.15 K, x1 = 0.3 | 1.3 | – | –
298.15 K, x1 = 0.5 | 2.13 | – | –
298.15 K, x1 = 0.8 | 2.49 | – | –
298.15 K, x1 = 1 | 4.22 | – | –
303.15 K, x1 = 0.1 | 0.497 | 1200.9 | 3.6
303.15 K, x1 = 0.22 | 0.832 | 1206.4 | 4.5
303.15 K, x1 = 0.3 | 1.44 | 1209.5 | 5.71
303.15 K, x1 = 0.4 | – | 1212.6 | 7.73
303.15 K, x1 = 0.5 | 2.37 | 1214.9 | 9.78
303.15 K, x1 = 0.62 | – | 1216.9 | 12.55
303.15 K, x1 = 0.7 | – | 1218 | 15.17
303.15 K, x1 = 0.8 | 2.8 | 1218.9 | 18.53
303.15 K, x1 = 1 | – | 1220.4 | 28.81
304.15 K, x1 = 1 | 4.94 | – | –
308.15 K, x1 = 0.1 | 0.546 | – | –
308.15 K, x1 = 0.22 | 0.93 | – | –
308.15 K, x1 = 0.3 | 1.59 | – | –
308.15 K, x1 = 0.5 | 2.62 | – | –
308.15 K, x1 = 0.8 | 3.13 | – | –
313.15 K, x1 = 0.1 | 0.597 | 1191 | 2.66
313.15 K, x1 = 0.22 | 1.03 | 1197 | 3.64
313.15 K, x1 = 0.3 | 1.74 | 1200.6 | 4.57
313.15 K, x1 = 0.4 | – | 1204.1 | 6.07
313.15 K, x1 = 0.5 | 2.88 | 1206.7 | 7.59
313.15 K, x1 = 0.62 | – | 1209.1 | 9.6
313.15 K, x1 = 0.7 | – | 1210.4 | 11.72
313.15 K, x1 = 0.8 | 3.46 | 1212 | 14.49
313.15 K, x1 = 1 | 5.97 | 1213.1 | 20.91
318.15 K, x1 = 0.1 | 0.65 | – | –
318.15 K, x1 = 0.22 | 1.13 | – | –
318.15 K, x1 = 0.3 | 1.9 | – | –
318.15 K, x1 = 0.5 | 3.15 | – | –
318.15 K, x1 = 0.8 | 3.81 | – | –
323.15 K, x1 = 0.1 | 0.704 | 1181.1 | 2.24
323.15 K, x1 = 0.22 | 1.23 | 1187.7 | 3.04
323.15 K, x1 = 0.3 | 2.06 | 1191.7 | 3.75
323.15 K, x1 = 0.4 | – | 1195.7 | 4.91
323.15 K, x1 = 0.5 | 3.43 | 1198.6 | 6.07
323.15 K, x1 = 0.62 | – | 1201.4 | 7.57
323.15 K, x1 = 0.7 | – | 1203 | 9.33
323.15 K, x1 = 0.8 | 4.18 | 1204 | 10.97
323.15 K, x1 = 1 | 7.17 | 1205.5 | 16.7
328.15 K, x1 = 0.1 | 0.759 | – | –
328.15 K, x1 = 0.22 | 1.33 | – | –
328.15 K, x1 = 0.3 | 2.22 | – | –
328.15 K, x1 = 0.5 | 3.72 | – | –
328.15 K, x1 = 0.8 | 4.57 | – | –
333.15 K, x1 = 0.1 | 0.816 | 1171.2 | 1.91
333.15 K, x1 = 0.22 | 1.44 | 1178.5 | 2.57
333.15 K, x1 = 0.3 | 2.39 | 1182.9 | 3.14
333.15 K, x1 = 0.4 | – | 1187.4 | 4.06
333.15 K, x1 = 0.5 | 4.01 | 1190.6 | 4.97
333.15 K, x1 = 0.62 | – | 1193.8 | 6.15
333.15 K, x1 = 0.7 | – | 1195.6 | 7.61
333.15 K, x1 = 0.8 | 4.97 | 1196.5 | 8.83
333.15 K, x1 = 1 | 8.51 | 1197.2 | 13.3
338.15 K, x1 = 0.1 | 0.874 | – | –
338.15 K, x1 = 0.22 | 1.54 | – | –
338.15 K, x1 = 0.3 | 2.56 | – | –
338.15 K, x1 = 0.5 | 4.32 | – | –
338.15 K, x1 = 0.8 | 5.38 | – | –
343.15 K, x1 = 0.1 | 0.932 | 1161.4 | 1.65
343.15 K, x1 = 0.22 | 1.66 | 1169.3 | 2.2
343.15 K, x1 = 0.3 | 2.73 | 1174.2 | 2.68
343.15 K, x1 = 0.4 | – | 1179.1 | 3.44
343.15 K, x1 = 0.5 | 4.62 | 1182.7 | 4.16
343.15 K, x1 = 0.62 | – | 1186.2 | 5.19
343.15 K, x1 = 0.7 | – | 1188 | 6.42
343.15 K, x1 = 0.8 | 5.8 | 1189.5 | 7.91
343.15 K, x1 = 1 | – | 1190.2 | 11.17
344.95 K, x1 = 1 | 9.3 | – | –
348.15 K, x1 = 0.1 | 0.992 | – | –
348.15 K, x1 = 0.22 | 1.77 | – | –
348.15 K, x1 = 0.3 | 2.91 | – | –
348.15 K, x1 = 0.5 | 4.93 | – | –
348.15 K, x1 = 0.8 | 6.24 | – | –
353.15 K, x1 = 0.1 | 1.05 | 1151.6 | 1.45
353.15 K, x1 = 0.22 | 1.88 | 1160.1 | 1.91
353.15 K, x1 = 0.3 | 3.09 | 1165.4 | 2.32
353.15 K, x1 = 0.4 | – | 1170.8 | 2.95
353.15 K, x1 = 0.5 | 5.24 | 1174.9 | 3.54
353.15 K, x1 = 0.62 | – | 1178.7 | 4.3
353.15 K, x1 = 0.7 | – | 1180 | 5.2
353.15 K, x1 = 0.8 | 6.68 | 1181.5 | 6.35
353.15 K, x1 = 1 | – | 1182 | 9.28
353.65 K, x1 = 1 | 10.5 | – | –
358.15 K, x1 = 0.1 | 1.11 | – | –
358.15 K, x1 = 0.22 | 1.99 | – | –
358.15 K, x1 = 0.3 | 3.19 | – | –
358.15 K, x1 = 0.5 | 5.55 | – | –
358.15 K, x1 = 0.8 | 7.12 | – | –
362.15 K, x1 = 0.3 | 3.35 | – | –
363.15 K, x1 = 0.5 | 5.83 | – | –
363.15 K, x1 = 0.8 | 7.57 | – | –
